Experiment: Stability of dexamethasone in phosphate buffer for long term release
Assay type: physicochemical

Which “stability in phosphate buffer for long term release” value does the source give for `C[C@@H]1C[C@H]2[C@@H]3CCC4=CC(=O)C=C[C@]4(C)[C@@]3(F)[C@@H](O)C[C@]2(C)[C@@]1(O)C(=O)CO` [dexamethasone] here?
The value was “instability”.
